Columns and labels:
[1] = test system: Gesamtcholesterinspiegel; assay: Lowering of total cholesterol level in humans; assay type: in vivo; conditions: 600 mg pro Tag, beim Menschen
Procedure: Mit 600 mg pro Tag ließ sich z.B. bei Verwendung der 11-Oxo-11-H-pyrido[2,1-b]chinazolin-2-carbonsäure beim Menschen der Gesamtcholesterinspiegel um etwa 25 % senken.

[2] = test system: Triglyceridspiegel; assay: Rat test: lowering of triglyceride level; assay type: in vivo; conditions: 100 mg/kg pro Tag (in zwei gleichen Gaben), normolipämische Ratten
Procedure: (§1) Im Versuch an Ratten wurde mit 100 mg/kg pro Tag (in zwei gleichen Gaben) eine deutliche Senkung des Triglyceridspiegels erreicht, z.B. 34% Senkung gegenüber der Kontrolle bei normolipämischen Ratten. Vorteilhafterweise wurde gleichzeitig der Harnsäurespiegel um 38 % gesenkt. Es läßt sich daher mit einer Substanz eine Therapie der Hyperlipidämie und der Hyperurikämie durchführen. Dadurch können unerwünschte Wechselwirkungen, wie sie bei der sonst nötigen Behandlung mit je einem Wirkstoff gegen die Hyperurikämie und gegen die Hyperlipidämie auftreten können, von vornherein vermieden werden.

[3] = test system: Gesamtcholesterin; assay: Study in 8 healthy volunteers on a defined purine-rich diet: total cholesterol; assay type: in vivo, gesunde Probanden; conditions: nach 8 Tagen (nach Therapieende), 600 mg/Tag from day 4, n = 8, before therapy (4 days) 196 ± 70 mg/dl, before diet 201 ± 48 mg/dl
Procedure: In einer anderen Studie erhielten 8 gesunde Probanden eine definierte purinreiche Diät über die Prüfdauer von 8 Tagen. Nach 4 Tagen wurde mit der Verabreichung von 11-Oxo-11-H-pyrido[2,1-b]-chinazolin-2-carbonsäure (600 mg/Tag) begonnen.
Gesamtcholesterin (x); n = 8
Das Ergebnis bedeutet eine l8prozentige Senkung des Gesamtcholesterins.

[4] = test system: Harnsäurespiegel; assay: Rat test: lowering of uric acid level; assay type: in vivo; conditions: 100 mg/kg pro Tag (in zwei gleichen Gaben), Ratten
Procedure: as §1

[5] = design: species or system Patienten; conditions: in vivo
Text: Gegenüber den bekannten Mitteln zur Behandlung der Hyperlipidämie haben die erfindungsgemäß verwendbaren Verbindungen, etwa die 11-Oxo-11-H pyrido-[2,1-b]-chinazolin-2-carbonsäure und ihre Salze, den Vorzug besserer Verträglichkeit.

## O=C(O)c1ccc2nc3ccccn3c(=O)c2c1 [11-Oxo-11-H-pyrido[2,1-b]chinazolin-2-carbonsäure]
[1]
  Senkung des Gesamtcholesterinspiegels: ~25%
[2]
  Senkung des Triglyceridspiegels gegenüber der Kontrolle: 34%
[3]
  Gesamtcholesterin (x): 160 ± 48 mg/dL
[4]
  Senkung des Harnsäurespiegels: 38%
[5]
  präparatespezifische Nebenwirkungen: keinerlei präparatespezifischen Nebenwirkungen
